# In patent US20070128217A1 (priority 2003, published 2007):
# Assays:
# [1] = tested on: rabbit serum obtained by immunizing a rabbit with the SARS-CoV strain Frankfurt 1; type: binding; parameters: Binding of a rabbit serum to linear peptides / Binding of a rabbit serum to looped peptides / Rabbit serum linear peptides / Rabbit serum looped peptides / Binding of a rabbit serum to linear peptides of protein N of SARS-CoV Urbani (Rabbit serum linear peptides) / Binding of a rabbit serum to looped/cyclic peptides of protein N of SARS-CoV Urbani (Rabbit serum looped peptides): unit not given here
# [2] = tested on: recombinant human anti-SARS-CoV antibody 03-018; type: binding; parameters: Binding of antibody 03-018 to linear peptides of the N protein of SARS-CoV Urbani / Binding of antibody 03-018 to looped/cyclic peptides of the N protein of SARS-CoV Urbani: unit not given here
# [3] = tested on: antibodies in sera from SARS patients (sera 1a, 1b, 2, 6, 37, 62, London, SARS-yellow, SARS-green); type: binding, human; parameters: Binding of serum 6 to linear peptides of protein X1 of SARS-CoV Urbani / Binding of serum 37 to linear peptides of protein X1 of SARS-CoV Urbani / Binding of serum 6 to looped/cyclic peptide (PEPSCAN-ELISA) / Binding of serum 37 to looped/cyclic peptide (PEPSCAN-ELISA) / Binding of serum 37 to looped/cyclic peptides of protein X1 of SARS-CoV Urbani / Binding of serum 6 to linear peptides of protein X2 / Binding of serum 37 to linear peptides of protein X2 / Binding of serum 37 to looped/cyclic peptides of protein X2 of SARS-CoV Urbani / Binding of serum 6 to linear peptides of protein M of SARS-CoV Urbani / Binding of serum 37 to linear peptides of protein M of SARS-CoV Urbani / Binding of serum 6 to looped/cyclic peptides of protein M of SARS-CoV Urbani / Binding of serum 37 to looped/cyclic peptides of protein M of SARS-CoV Urbani / Binding of serum 6 to linear peptides of protein X3 of SARS-CoV Urbani / Binding of serum 37 to linear peptides of protein X3 of SARS-CoV Urbani / Binding of serum 37 to looped/cyclic peptides of protein X3 of SARS-CoV Urbani / Binding of serum 6 to linear peptides of protein X4 of SARS-CoV Urbani / Binding of serum 37 to linear peptides of protein X4 of SARS-CoV Urbani / Binding of serum 37 to looped/cyclic peptides of protein X4 of SARS-CoV Urbani / Binding of serum 6 to linear peptides of protein X5 of SARS-CoV Urbani / Binding of serum 37 to linear peptides of protein X5 of SARS-CoV Urbani / Binding of serum 37 to looped/cyclic peptides of protein X5 of SARS-CoV Urbani / Binding of serum 6 to linear peptides of protein N of SARS-CoV Urbani / Binding of serum 37 to linear peptides of protein N of SARS-CoV Urbani / Binding of serum 6 to linear peptide (PEPSCAN-ELISA) / Binding of serum 1a to looped/cyclic peptides of protein N of SARS-CoV Urbani / Binding of serum 1b to looped/cyclic peptides of protein N of SARS-CoV Urbani / Binding of serum 2 to looped/cyclic peptides of protein N of SARS-CoV Urbani / Binding of serum 6 to looped/cyclic peptides of protein N of SARS-CoV Urbani / Binding of serum 37 to looped/cyclic peptides of protein N of SARS-CoV Urbani / Binding of serum 62 to looped/cyclic peptides of protein N of SARS-CoV Urbani / Binding of serum London to looped/cyclic peptides of protein N of SARS-CoV Urbani / Binding of serum SARS-green to looped/cyclic peptides of protein N of SARS-CoV Urbani: unit not given here
# [4] = tested on: control sera (pooled serum of ten healthy LUMC hospital workers; commercial negative donor pooled serum from the Dutch bloodbank); type: binding, human; parameters: Binding of Control serum LUMC to linear peptides / Binding of Control serum Blood-bank to linear peptides / Binding of Control serum LUMC to looped peptides / Binding of Control Serum Blood-Bank to Looped peptides / Binding of Control serum LUMC to linear peptides of the protein M of SARS-CoV Urbani / Binding of Control serum Blood-bank to linear peptides of the protein M of SARS-CoV Urbani / Binding of Control serum LUMC to looped peptides of the protein M of SARS-CoV Urbani / Binding of Control Serum Blood-Bank to Looped peptides of the protein M of SARS-CoV Urbani: unit not given here
Sequence,Binding of a rabbit serum to linear peptides of protein N of SARS-CoV Urbani (Rabbit serum linear peptides) [1],Binding of a rabbit serum to looped/cyclic peptides of protein N of SARS-CoV Urbani (Rabbit serum looped peptides) [1],Binding of antibody 03-018 to linear peptides of the N protein of SARS-CoV Urbani [2],Binding of antibody 03-018 to looped/cyclic peptides of the N protein of SARS-CoV Urbani [2],Binding of serum 1a to linear peptides of protein N of SARS-CoV Urbani [3],Binding of serum 1a to looped/cyclic peptides of protein N of SARS-CoV Urbani [3],Binding of serum 1b to linear peptides of protein N of SARS-CoV Urbani [3],Binding of serum 1b to looped/cyclic peptides of protein N of SARS-CoV Urbani [3],Binding of serum 2 to linear peptides of protein N of SARS-CoV Urbani [3],Binding of serum 2 to looped/cyclic peptides of protein N of SARS-CoV Urbani [3],Binding of serum 6 to linear peptides of protein N of SARS-CoV Urbani [3],Binding of serum 6 to looped/cyclic peptides of protein N of SARS-CoV Urbani [3],Binding of serum 37 to linear peptides of protein N of SARS-CoV Urbani [3],Binding of serum 37 to looped/cyclic peptides of protein N of SARS-CoV Urbani [3],Binding of serum 62 to linear peptides of protein N of SARS-CoV Urbani [3],Binding of serum 62 to looped/cyclic peptides of protein N of SARS-CoV Urbani [3],Binding of serum London to linear peptides of protein N of SARS-CoV Urbani [3],Binding of serum London to looped/cyclic peptides of protein N of SARS-CoV Urbani [3],Binding of serum SARS-green to linear peptides of protein N of SARS-CoV Urbani [3],Binding of serum SARS-green to looped/cyclic peptides of protein N of SARS-CoV Urbani [3],further results
FYYLGTGPEASLPYG,0.1,0.6,0.1,0.2,0.3,0.4,0.1,0.3,0.2,0.4,0.2,0.2,0.6,0.7,0.7,0.6,0.5,0.5,0.4,0.4,Binding of serum SARS-yellow to linear peptides of protein N of SARS-CoV Urbani [3]: 0.7; Binding of serum SARS-yellow to looped/cyclic peptides of protein N of SARS-CoV Urbani [3]: 0.7; Binding of Control Serum Blood-Bank to Looped peptides [4]: 0.7; Binding of Control serum Blood-bank to linear peptides [4]: 0.6; Binding of Control serum LUMC to linear peptides [4]: 0.7; Binding of Control serum LUMC to looped peptides [4]: 0.7
EGIVWVATEGALNTP,0.1,0.4,0.1,0.2,0.3,0.3,0.2,0.2,0.3,0.4,0.2,0.2,0.8,0.7,0.7,0.6,0.5,0.3,0.4,0.4,Binding of serum SARS-yellow to linear peptides of protein N of SARS-CoV Urbani [3]: 0.6; Binding of serum SARS-yellow to looped/cyclic peptides of protein N of SARS-CoV Urbani [3]: 0.6; Binding of Control Serum Blood-Bank to Looped peptides [4]: 0.6; Binding of Control serum Blood-bank to linear peptides [4]: 0.8; Binding of Control serum LUMC to linear peptides [4]: 0.8; Binding of Control serum LUMC to looped peptides [4]: 0.6
MKELSPRWYFYYLGT,0.1,0.4,0.1,0.2,0.2,0.4,0.1,0.2,0.1,0.4,0.1,0.2,0.5,0.7,0.4,0.6,0.4,0.4,0.2,0.4,Binding of serum SARS-yellow to linear peptides of protein N of SARS-CoV Urbani [3]: 0.6; Binding of serum SARS-yellow to looped/cyclic peptides of protein N of SARS-CoV Urbani [3]: 0.4; Binding of Control Serum Blood-Bank to Looped peptides [4]: 0.7; Binding of Control serum Blood-bank to linear peptides [4]: 0.7; Binding of Control serum LUMC to linear peptides [4]: 0.6; Binding of Control serum LUMC to looped peptides [4]: 0.6
TNSGPDDQIGYYRRA,0.2,0.5,0.1,0.2,0.3,0.5,0.2,0.4,0.2,0.5,0.2,0.3,0.7,0.9,0.7,0.8,0.5,0.6,0.4,0.6,Binding of serum SARS-yellow to linear peptides of protein N of SARS-CoV Urbani [3]: 0.6; Binding of serum SARS-yellow to looped/cyclic peptides of protein N of SARS-CoV Urbani [3]: 0.7; Binding of Control Serum Blood-Bank to Looped peptides [4]: 0.7; Binding of Control serum Blood-bank to linear peptides [4]: 1.2; Binding of Control serum LUMC to linear peptides [4]: 0.9; Binding of Control serum LUMC to looped peptides [4]: 0.9
